# Patent US7816407B2, “Agmatine and agmatine analogs in the treatment of epilepsy, seizure, and electroconvulsive disorders” (University of Kentucky Research Foundation, priority 2000, dated 2010)
# How the values were obtained:
# [1] = system: mice; test: Rotorod neurotoxicity test; type: in vivo, mouse; conditions: doses as high as 300 mg/kg
# Description: (§1) Toxicity in mice and rats is assessed using three screens: the rotorod in mice, positional sense, and gait in rats. In mice, the test compound is administered at doses of 30, 100, and 300 mg/kg prior to evaluation in the toxicity screens. The mice are tested 0.5 hours and 4 hours after administration of the test compound. In rats, the test compound is administered at 30 mg/kg prior to the toxicity assessment. The rats are tested at 0.25, 0.5, 1, 2, and 4 hours after administration of the test compound.
# Toxicity in mice weighing between 20.5 and 25.5 g is assessed using the standardized rotorod test (Dunham, M. S. and T. A. Miya, A note on a simple apparatus for detecting neurological deficit in rats and mice, J. Am. Pharm. Assoc. Sci. Edit (1957) 46:208-209). Control mice can maintain their equilibrium for an extended period of time when they are placed on a 6 rpm rotation rod. Neurologically impaired animals cannot maintain equilibrium for one minute in each of three successive trials.
# [2] = system: rats; test: Gait and stance test; type: in vivo, rat; conditions: oral or intraperitoneal, 30 mg/kg
# Description: as §1
# In the gait and stance test, neurotoxicity is indicated by a circular or zigzag gait after administration of the test compound. In addition, ataxia, abnormal spread of the legs, abnormal posture, tremor hyperactivity, lack of exploratory behavior, somnolence, stupor, or catalepsy can indicate neurotoxicity. This toxicity test was conducted on 20 rats, weighing between 105 and 130 g.
# [3] = system: rats; test: Positional sense test; type: in vivo, rat; conditions: oral or intraperitoneal, 30 mg/kg
# Description: as §1
# Behavioral toxicity in rats weighing between 105 and 130 g is assessed by the positional sense test. […] If the rat experiences neurological toxicity, it will not be able to quickly lift its leg back to a normal position.
# [4] = system: MES-induced seizure spread (hindlimb tonic extension); test: Maximal Electroshock Seizure (MES) test; type: in vivo, rat
# Description: The MES is an experimental model for generalized tonic-clonic seizures that identifies compounds which prevent seizure spread. The MES model is highly reproducible and has a consistent endpoint. An advantage of this model is that the behavioral and electrographic seizures are consistent with those observed in humans (Levy, R. H., Antiepileptic drugs. 3rd Ed. 1989, New York: Raven Press. xxvii, 1025. p. 85-102).
# In the MES test, the animal receives an electrical stimulus, 0.2 seconds in duration, via corneal electrodes primed with an electrolyte solution containing an anesthetic agent. The 0.2 second stimulation is generated with 150 mA in rats at 60 Hz. Twenty rats, weighing between 105 g and 130 g receive an electrical stimulus 15 minutes, 30 minutes, 1 hour, 2 hours, 4 hours, 8 hours and 12 hours after oral administration of a dose of about 30 mg/kg of agmatine in phosphate buffered in saline per kg of the animal. The test endpoint, electrogenic seizure, is manifested as hindlimb tonic extension.
smiles,measurement,setting,value
"NCCCCN=C(N)N [agmatine, 4-aminobutylguanidine]",behavioral or neurotoxicity in rotorod test,[1],none of these animals showed any evidence of behavioral or neurotoxicity
same,neurotoxicity in gait and stance test,[2],no neurotoxicity
same,neurotoxicity in positional sense test,[3],no neurotoxicity
same,rats protected from MES-induced seizure spread,"[4]; intraperitoneal, 4 hours before electrical shock",50%
same,rats protected from MES-induced seizure spread,"[4]; oral 30 mg/kg, shock 0.25 hours after administration",37.5%
same,rats protected from MES-induced seizure spread,"[4]; oral 30 mg/kg, shock 0.5 hours after administration",12.5%
same,rats protected from MES-induced seizure spread,"[4]; oral 30 mg/kg, shock 2 hours after administration",12.5%
same,rats protected from MES-induced seizure spread,"[4]; oral 30 mg/kg, shock 4 hours after administration",75%
same,rats protected from MES-induced seizure spread,"[4]; oral 30 mg/kg, shock 6 hours after administration",25%
